Assay results published in patent US20130209487A1, “Treatment of Avian Species with Inhibitors of P110 Delta Signaling” (priority 2010, published 2013).
Entries after “also recorded” stand apart in the source; their conditions may differ.

Assays:
[1] = system: H7N7 A/Equine/London/1416/73 influenza virus strain; parameters: species or system mice; settings: mouse, in vivo
[2] = system: influenza virus strain PR8; format: cell-based

Cc1ccccc1-n1c(Cn2cnc3c(N)ncnc32)nc2cccc(C)c2c1=O [IC87114]
survival after lethal challenge [1]: increased survival; also recorded: protects mice lethally challenged with virulent influenza virus
survival of A549 cell (A549 cell): did not affect the survival
influenza virus replication [2]: inhibits influenza virus replication
viral mRNA production reduced compared to untreated cells [2]: ~25 fold
